Test results published in patent US20260125382A1, “COMPOUNDS FOR INHIBITING OR DEGRADING CDK2 AND/OR CDK9 AND MEDICINAL USE THEREOF” (KOREA RESEARCH INSTITUTE OF CHEMICAL TECHNOLOGY, priority 2022, published 2026).

Legend:
[1] = target: T1, CDK2 (Homo sapiens, UniProt P24941); assay: CDK protein degradation activity (Western blotting), CDK2; assay type: cell-based; settings: MDA-MB-231 cells, 16 hours, Western blot
T1 construct: endogenous in cells; host or cells: MDA-MB-231
Summary of the method: (§1)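 Seed MDA-MB-231 cells; next day add compound to 100 nM, 1 μM or 10 μM final, or DMSO. After 16 h, harvest and lyse in Triton X-100 buffer, run SDS-PAGE, probe for CDK2, CDK9 and tubulin.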

[2] = target: T2, CDK9 (Homo sapiens, UniProt P50750); assay: CDK protein degradation activity (Western blotting), CDK9; assay type: cell-based; settings: MDA-MB-231 cells, 16 hours, Western blot
T2 construct: endogenous in cells; host or cells: MDA-MB-231
Summary of the method: as §1

T2 sequence (P50750 whole entry): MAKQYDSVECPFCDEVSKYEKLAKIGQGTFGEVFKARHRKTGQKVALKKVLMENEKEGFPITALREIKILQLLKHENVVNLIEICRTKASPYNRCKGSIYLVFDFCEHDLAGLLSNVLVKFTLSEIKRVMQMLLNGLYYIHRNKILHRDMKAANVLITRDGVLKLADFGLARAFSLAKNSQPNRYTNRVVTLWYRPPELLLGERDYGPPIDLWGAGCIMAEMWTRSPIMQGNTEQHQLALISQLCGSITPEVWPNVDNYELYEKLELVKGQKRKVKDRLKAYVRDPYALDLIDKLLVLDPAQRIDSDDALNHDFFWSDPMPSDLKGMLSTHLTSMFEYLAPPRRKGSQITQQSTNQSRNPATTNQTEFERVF

Structure (SMILES)	Enzyme degradation CDK2 (% remaining) @ 0.1 μM [1]	Enzyme degradation CDK2 (% remaining) @ 1 μM [1]	Enzyme degradation CDK2 (% remaining) @ 10 μM [1]	Enzyme degradation CDK9 (% remaining) @ 0.1 μM [2]	Enzyme degradation CDK9 (% remaining) @ 1 μM [2]	Enzyme degradation CDK9 (% remaining) @ 10 μM [2]
O=C1CC[C@H](N2C(=O)c3cccc(N4CC(CN5CCC6(CC5)CC(N5CCN(c7ccc(Nc8ncnc9c8ncn9[C@H]8C[C@@H](NC(=O)Cc9ccccc9)C8)cc7)CC5)C6)C4)c3C2=O)C(=O)N1 [Compound 279, N-((1s,3s)-3-(6-((4-(4-(7-((1-(2-(2,6-dioxopiperidin-3-yl)-1,3-dioxoisoindolin-4-yl)azetidin-3-yl)methyl)-7-azaspiro[3.5]nonan-2-yl)piperazin-1-yl)phenyl)amino)-9H-purin-9-yl)cyclobutyl)-2-phenylacetamide]	50%	40%	40%	40%	10%	10%
O=C1CC[C@H](N2C(=O)c3ccc(NCC(=O)N4CCC5(CC4)CC(N4CCN(c6ccc(Nc7ncnc8c7ncn8C7CC(NC(=O)c8c(Cl)cccc8Cl)C7)cc6)CC4)C5)cc3C2=O)C(=O)N1 (stereo partly drawn) [Compound 318, 2,6-dichloro-N-((1s,3s)-3-(6-((4-(4-(7-((2-(2,6-dioxopiperidin-3-yl)-1,3-dioxoisoindolin-5-yl)glycyl)-7-azaspiro[3.5]nonan-2-yl)piperazin-1-yl)phenyl)amino)-9H-purin-9-yl)cyclobutyl)benzamide]	20%	20%	40%	0/0/0%	0/0/0%	0/0/0%
O=C1CC[C@H](N2C(=O)c3cccc(N4CCC5(CC4)CC(N4CCN(c6ccc(Nc7ncnc8c7ncn8[C@H]7C[C@@H](NC(=O)Cc8ccccc8)C7)cc6)CC4)C5)c3C2=O)C(=O)N1 [Compound 209, N-((1s,3s)-3-(6-((4-(4-(7-(2-(2,6-dioxopiperidin-3-yl)-1,3-dioxoisoindolin-4-yl)-7-azaspiro[3.5]nonan-2-yl)piperazin-1-yl)phenyl)amino)-9H-purin-9-yl)cyclobutyl)-2-phenylacetamide]	70%	60%	30%	30%	20%	10%
O=C1CC[C@H](N2C(=O)c3cccc(NCC(=O)N4CCC(CN5CCN(c6ccc(Nc7ncnc8c7ncn8[C@H]7C[C@@H](NC(=O)c8c(Cl)cccc8Cl)C7)cc6)CC5)CC4)c3C2=O)C(=O)N1 [Compound 165, 2,6-dichloro-N-((1s,3s)-3-(6-((4-(4-((1-((2-(2,6-dioxopiperidin-3-yl)-1,3-dioxoisoindolin-4-yl)glycyl)piperidin-4-yl)methyl)piperazin-1-yl)phenyl)amino)-9H-purin-9-yl)cyclobutyl)benzamide]	10/10/10%	10/10/10%	10/10/10%	0/0/0%	0/0/0%	0/0/0%
O=C1CC[C@H](n2nnc3ccc(N4CCC5(CC4)CC(N4CCN(c6ccc(Nc7ncnc8c7ncn8[C@H]7C[C@@H](NC(=O)Cc8ccccc8)C7)cc6)CC4)C5)cc3c2=O)C(=O)N1 [Compound 314, N-((1s,3s)-3-(6-((4-(4-(7-(3-(2,6-dioxopiperidin-3-yl)-4-oxo-3,4-dihydrobenzo[d][1,2,3]triazin-6-yl)-7-azaspiro[3.5]nonan-2-yl)piperazin-1-yl)phenyl)amino)-9H-purin-9-yl)cyclobutyl)-2-phenylacetamide]	10/10/10%	10/10/10%	10/10/10%	10%	0%	0%
Cc1cccc(C(=O)NC2CC(n3cnc4c(NCCCN5CCN(CC6CCN(C(=O)CNc7ccc8c(c7)C(=O)N([C@@H]7CCC(=O)NC7=O)C8=O)CC6)CC5)ncnc43)C2)n1 (stereo partly drawn) [Compound 145, N-((1r,3r)-3-(6-((3-(4-((1-((2-(2,6-dioxopiperidin-3-yl)-1,3-dioxoisoindolin-5-yl)glycyl)piperidin-4-yl)methyl)piperazin-1-yl)propyl)amino)-9H-purin-9-yl)cyclobutyl)-6-methylpicolinamide]	30%	50%	50%	0/0/0%	0/0/0%	0/0/0%
O=C1CCC(N2C(=O)c3cccc(OCC(=O)N4CCC(CCCN5CCN(c6ccc(Nc7ncnc8c7ncn8[C@H]7C[C@@H](NC(=O)Cc8ccccc8)C7)cc6)CC5)CC4)c3C2=O)C(=O)N1 (stereo partly drawn) [Compound 254, N-((1s,3s)-3-(6-((4-(4-(3-(1-(2-((2-(2,6-dioxopiperidin-3-yl)-1,3-dioxoisoindolin-4-yl)oxy)acetyl)piperidin-4-yl)propyl)piperazin-1-yl)phenyl)amino)-9H-purin-9-yl)cyclobutyl)-2-phenylacetamide]	50%	30%	20%	50%	20%	0%

The remaining lines, values ahead:

Enzyme degradation CDK2 (% remaining) @ 0.1 μM [1]	Enzyme degradation CDK2 (% remaining) @ 1 μM [1]	Enzyme degradation CDK2 (% remaining) @ 10 μM [1]	Enzyme degradation CDK9 (% remaining) @ 0.1 μM [2]	Enzyme degradation CDK9 (% remaining) @ 1 μM [2]	Enzyme degradation CDK9 (% remaining) @ 10 μM [2]	Structure (SMILES)
50%	30%	30%	0/0/0%	0/0/0%	0/0/0%	O=C1CC[C@H](N2C(=O)c3cc(F)c(N4CCC(C(=O)N5CCC(CCCN6CCN(c7ccc(Nc8ncnc9c8ncn9[C@H]8C[C@@H](NC(=O)Cc9ccccc9)C8)cc7)CC6)CC5)CC4)cc3C2=O)C(=O)N1 [Compound 459, N-((1s,3s)-3-(6-((4-(4-(3-(1-(1-(2-(2,6-dioxopiperidin-3-yl)-6-fluoro-1,3-dioxoisoindolin-5-yl)piperidin-4-carbonyl)piperidin-4-yl)propyl)piperazin-1-yl)phenyl)amino)-9H-purin-9-yl)cyclobutyl)-2-phenylacetamide]
20/20/20%	20/20/20%	20/20/20%	0%	0%	20%	O=C1CC[C@H](N2C(=O)c3cccc(CCCCN4CCC(CN5CCN(c6ccc(Nc7ncnc8c7ncn8[C@H]7C[C@@H](NC(=O)c8cccc(C(F)(F)F)n8)C7)cc6)CC5)CC4)c3C2=O)C(=O)N1 [Compound 427, N-((1s,3s)-3-(6-((4-(4-((1-(4-(2-(2,6-dioxopiperidin-3-yl)-1,3-dioxoisoindolin-4-yl)butyl)piperidin-4-yl)methyl)piperazin-1-yl)phenyl)amino)-9H-purin-9-yl)cyclobutyl)-6-(trifluoromethyl)picolinamide]
80%	60%	60%	20%	0%	0%	O=C1CC[C@H](N2C(=O)c3cc(F)c(N4CCC(C(=O)N5CCC(CCN6CCN(c7ccc(Nc8ncnc9c8ncn9[C@H]8C[C@@H](NC(=O)Cc9ccccc9)C8)cc7)CC6)CC5)CC4)cc3C2=O)C(=O)N1 [Compound 457, N-((1s,3s)-3-(6-((4-(4-(2-(1-(1-(2-(2,6-dioxopiperidin-3-yl)-6-fluoro-1,3-dioxoisoindolin-5-yl)piperidin-4-carbonyl)piperidin-4-yl)ethyl)piperazin-1-yl)phenyl)amino)-9H-purin-9-yl)cyclobutyl)-2-phenylacetamide]
20/20/20%	20/20/20%	20/20/20%	10/10/10%	10/10/10%	10/10/10%	O=C1CC[C@H](N2C(=O)c3cc(F)c(N4CCC(CN5CCN(c6ccc(Nc7ncnc8c7ncn8C7CC(NC(=O)c8cccc(C(F)(F)F)n8)C7)cc6)CC5)CC4)cc3C2=O)C(=O)N1 (stereo partly drawn) [Compound 415, N-((1s,3s)-3-(6-((4-(4-((1-(2-(2,6-dioxopiperidin-3-yl)-6-fluoro-1,3-dioxoisoindolin-5-yl)piperidin-4-yl)methyl)piperazin-1-yl)phenyl)amino)-9H-purin-9-yl)cyclobutyl)-6-(trifluoromethyl)picolinamide]
